Test results from patent US11154619B2, “Liposomal compositions with light illumination-induced drug release” (Creighton University, priority 2017, dated 2021).
Where a name gives a salt, the structure may show the parent alone.

Tested on: WI26-VA4 cells
Assay: Doxorubicin cytotoxicity by MTT cell viability assay, liposomes with or without pre-illumination
Format: cell-based
Conditions: total dose of 1 μM; co-incubated with cells for 4 hours; evaluated 48 hours after treatment; no illumination
Protocol: Studies were performed on the fluorescent marker- or drug-loaded liposomes described above diluted to a concentration of 0.2 mM by total lipids with or without the photosensitizer-peptide conjugate described above at 1:80 to 1:5 molar ratio to total lipids. Optionally, samples were also supplied with antioxidants/reducing agents or other additional substances at different concentrations. Samples were either illuminated as described below or kept for the same time period under different control conditions.
Illumination of prepared liposomes with or without photosensitizer-peptide conjugate was mostly preformed using a setup that included a halogen utility lamp, a 2-inch thick flowing water filter to cut infrared irradiation above 950 nm and a red optical cast plastic filter (EdmundOptics) to cut off light irradiation below 620 nm (FIG. 1). […]
Release of the drug substance (doxorubicin hydrochloride) from the liposomes was done by enhancement of its biological action (cytotoxicity) on cultured WI26-VA4 cells after pre-illuminating liposomes with or without photosensitizer-peptide conjugate in comparison to liposomes at the same dose without pre-illumination, co-incubated with cells for 4 hours. The extent of cell death was evaluated 48 hours after treatment using a MTT cell viability assay.

`COc1cccc2c1C(=O)c1c(O)c3c(c(O)c1C2=O)C[C@@](O)(C(=O)CO)C[C@@H]3O[C@H]1C[C@H](N)[C@H](O)[C@H](C)O1` [doxorubicin hydrochloride] was tested, and the cell death was “about 60%”.
